# Experimental data: patent US8580834B2, “Small molecule modulators of hepatocyte growth factor (scatter factor) activity” (Angion Biomedica Corp., priority 2002, dated 2013)
# Tests used:
# [1] = test system: HUVECs; assay: Nitric oxide production in HUVECs, DAF 2-DA fluorescence; format: cell-based, human; conditions: 24 hours
# Procedure: c. […] HUVECs are incubated with either vehicle, HGF/SF, instant compounds, or SNAP for 24 hours, loaded with the nitric oxide-sensitive fluorescence indicator DAF 2-DA and imaged under a laser scanning confocal microscope.
# HGF and compounds of the invention may exert their anti-apoptotic effects in part through stimulation of nitric oxide production. We incubated HUVECs with either HGF or instant compounds and measured NO production using the nitric oxide-sensitive fluorescence indicator DAF 2-DA. […] Without wishing to be bound to any particular theory, we propose that the anti-apoptotic activities of both HGF and compounds of the invention may be mediated by nitric oxide production.
# [2] = MTT cell viability assay, adriamycin-induced apoptosis; format: cell-based; conditions: dog, MDCK cells, of untreated cells, read-out: cell viability, adriamycin alone
# Text: (§1) a. HGF/SF and instant compounds have significant anti-apoptotic activity in cultured cell lines.
# (§2) Using the MTT cell viability assay we tested the ability of compounds of the invention to protect cells from adriamycin-induced apoptosis. […] Adriamycin alone decreased cell viability to 56% of untreated cells.
# [3] = test system: NIH-3T3 cells transfected with c-met receptor; assay: Protection against adriamycin-induced apoptosis, c-met transfected NIH-3T3 cells, MTT assay; format: cell-based; conditions: pre-treated 48 hr with HGF (50 ng/ml) or compound (12 mg/ml), adriamycin (15 mM) 2 hr
# Procedure: b. Protection from apoptosis in NIH-3T3 cells transfected with c-met receptor.
# NIH3T3 cells were pre-treated with HGF (50 ng/ml) or compound (12 mg/ml) for 48 hr. Cells were then exposed to adriamycin (ADR) (15 mM) for 2 hr, and post-incubated for 48 hr before performing the MTT assay. […] There was no protection from apoptosis by either compound in non-transfected cells lacking the c-met receptor.
# [4] = test system: isolated aortic rings; assay: Aortic ring assay; format: cell-based, Sprague Dawley rats; conditions: instant compound or HGF (100 ng/ml), day 5
# Text: a. Aortic ring assay. Thoracic artery rings from rats are embedded in Matrigel and grown for 5 days in the presence or absence of HGF/SF or compounds of the invention. Treatment with compounds of the invention causes an increased outgrowth from the rings similar to that seen with HGF/SF.
# Thoracic aortas from 100 gm Sprague Dawley rats are isolated under sterile conditions and cut into rings of approximately 0.8 to 1.0 mm in length. The rings are embedded in Matrigel in the bottom of 48 well culture plates and instant compound […] or HGF (100 ng/ml, as positive control) was added in […] of serum-free tissue culture medium (Human endothelial-SFM basal growth medium plus 1% bovine serum albumin). An inventive compound or HGF was replenished on day 4; on day 5, the rings were photographed and examined for outgrowths. […] Without wishing to be bound to any particular theory, we propose that inventive compounds are capable of activating proliferation of cells required for angiogenesis.
# [5] = test system: human hepatic stellate cell line LX2; assay: Antifibrotic activity: collagen I mRNA in LX2 cells, real time PCR; format: cell-based; conditions: serum starved LX2 cells, 24 hours; HGF 100 ng/ml, compounds 12 to 24 ug/ml
# Procedure: a. Antifibrotic Activity in Hepatic Stellate Cells. Serum starved (activated) LX2 cells (an immortalized human hepatic stellate cell line) that are treated with HGF/SF or a compound of the invention show a decrease in collagen I mRNA expression, as well as expression of other fibrotic marker genes, related to significant antifibrotic activity.
# The antifibrotic effects of HGF and compounds of the invention in the immortalized human hepatic stellate cell line LX2 are determined. Serum starved LX2 cells are treated for 24 hours with HGF at 100 ng/ml and compounds of the invention at doses ranging from 12 to 24 ug/ml. RNA is then isolated and real time PCR was performed to evaluate changes in collagen I mRNA. […] Additional experiments to determine the effects of HGF and compounds on TGFb-1, bPDGF-R and MMP-1 mRNA are also performed to more completely characterize activities of these compounds which can contribute to their antifibrotic effects.
# [6] = test system: MDCK cells; assay: MTT cell viability assay, adriamycin-induced apoptosis; format: cell-based
# Text: as §1, §2
# [7] = test system: C57BL/6 mice; conditions: earlier studies with HGF; cited from earlier work
Compound,nitric oxide production (DAF 2-DA fluorescence) [1],viability [2] [%],protection from adriamycin-induced apoptosis (MTT) [3],endothelial cell outgrowth from aortic rings [4],decrease in collagen I mRNA expression [5] [%],nitric oxide production (DAF 2-DA fluorescence) ([1]; listed as HGF/SF),"cell viability after pretreatment, then adriamycin ([6]; adriamycin-induced apoptosis) [%]","cell viability, compound or HGF alone ([6]; without adriamycin)",vessel area [7]
"CC(=O)N[C@@H](C(=O)O)C(C)(C)SN=O (racemic) [SNAP, reference compound]",significant increase in fluorescence,,,,,,,,
"COc1cccc2c1C(=O)c1c(O)c3c(c(O)c1C2=O)C[C@@](O)(C(=O)CO)C[C@@H]3O[C@H]1C[C@H](N)[C@H](O)[C@H](C)O1 [Adriamycin, reference compound]",,56,,,,,,,
"HGF: pleiotropic growth factor that stimulates cell growth, cell motility, morphogenesis and angiogenesis",stimulate nitric oxide production,,protect the cells from adriamycin-induced apoptosis,stimulated equivalent endothelial cell outgrowth,70,significant increase in fluorescence,94,no effect on cell viability,dose-dependently increases the vessel area
